# Results as given in ChEMBL document CHEMBL5052856, “Inhibitors of apol1 and methods of using same” (2021).
# Biological target: Apolipoprotein L1 (Homo sapiens, UniProt O14791)
# Test: Inhibition of APOL1 G1 variant in human HEK293-T-REx cells measured by Thallium assay
# Assay type: cell-based
row,SMILES,IC50
1,NC(=O)CCNC1CC(c2c(-c3ccc(F)cc3)[nH]c3c(F)cc(F)cc23)C1 (stereo unspecified),> 1000 nM
2,O=C(NC1(CO)CC(F)(F)C1)C1CC(Cc2c(-c3ccc(F)cc3)[nH]c3c(F)cc(F)cc23)C1 (stereo unspecified),> 1000 nM
3,O=C(N[C@H]1CCOC1=O)C1CC(Cc2c(-c3ccc(F)cc3)[nH]c3c(F)cc(F)cc23)C1 (stereo partly specified),> 1000 nM
4,O=C(NCCn1cncn1)[C@H]1C[C@@H](c2c(-c3ccc(F)cc3)[nH]c3c(F)cc(F)cc32)C1,> 1000 nM
5,Cc1noc(CNC(=O)C2CC(Cc3c(-c4ccc(F)cc4)[nH]c4c(F)cc(F)cc34)C2)n1 (stereo unspecified),> 1000 nM
6,C[C@@H](O)CNC(=O)[C@H]1C[C@@H](c2c(-c3ccc(F)cc3)[nH]c3c(F)cc(F)cc32)C1,> 1000 nM
7,NC(=O)C(CO)NC(=O)[C@H]1C[C@@H](c2c(-c3ccc(F)cc3)[nH]c3c(F)cc(F)cc32)C1 (stereo partly specified),> 1000 nM
8,C[C@@H](CO)NC(=O)N[C@H]1C[C@H](c2c(-c3ccc(F)cc3)[nH]c3c(F)cc(F)cc32)C1,0.25 nM
9,O=C(N[C@H]1C[C@H](O)C1)[C@H]1C[C@@H](c2c(-c3ccc(F)cc3)[nH]c3c(F)cc(F)cc32)C1,> 1000 nM
10,C[C@H](CO)NC(=O)CNC(=O)[C@H]1C[C@H](c2c(-c3ccc(F)cc3)[nH]c3c(F)cc(F)cc32)C1,> 1000 nM
11,O=C(NCC(O)CO)[C@H]1C[C@@H](c2c(-c3ccc(F)cc3)[nH]c3c(F)cc(F)cc32)C1 (stereo partly specified),> 1000 nM
12,O=C1NCCC1NC(=O)[C@H]1C[C@@H](c2c(-c3ccc(F)cc3)[nH]c3c(F)cc(F)cc32)C1 (stereo partly specified),> 1000 nM
13,Cn1cnc(CNC(=O)C2(C)CC(c3c(-c4ccc(F)cc4)[nH]c4c(F)cc(F)cc34)C2)c1 (stereo unspecified),0.25 nM
14,O=C(CNC(=O)[C@H]1C[C@H](c2c(-c3ccc(F)cc3)[nH]c3c(F)cc(F)cc32)C1)NCCO,> 1000 nM
15,O=C(NC(CO)CO)[C@H]1C[C@@H](c2c(-c3ccc(F)cc3)[nH]c3c(F)cc(F)cc32)C1,> 1000 nM
16,Cc1ccn(CCNC(=O)[C@H]2C[C@@H](c3c(-c4ccc(F)cc4)[nH]c4c(F)cc(F)cc43)C2)n1,0.25 nM
17,O=C1NC[C@@H](O)[C@@H]1NC(=O)[C@H]1C[C@H](c2c(-c3ccc(F)cc3)[nH]c3c(F)cc(F)cc32)C1,< 250 nM
18,NC(=O)CNC(=O)C1CC(c2c(-c3ccc(F)cc3)[nH]c3c(F)cc(C(F)(F)F)cc23)C1 (stereo unspecified),< 250 nM
19,CC1(C(=O)NC2(CO)CC2)CC(c2c(-c3ccc(F)cc3)[nH]c3c(F)cc(F)cc23)C1 (stereo unspecified),< 250 nM
20,O=C(N[C@@H]1CCOC1)[C@H]1C[C@@H](c2c(-c3ccc(F)cc3)[nH]c3c(F)cc(F)cc32)C1,> 1000 nM
21,O=C(NCC(F)(F)F)[C@H]1C[C@@H](c2c(-c3ccc(F)cc3)[nH]c3c(F)cc(F)cc32)C1,0.25 nM

row,SMILES,IC50
1,C[C@H](CO)NC(=O)[C@H]1C[C@@H](c2c(-c3ccc(F)cc3)[nH]c3c(F)cc(F)cc32)C1,> 1000 nM
2,CC(CO)NC(=O)[C@H]1C[C@@H](c2c(-c3ccc(F)cc3)[nH]c3c(F)cc(F)cc32)C1 (stereo partly specified),> 1000 nM
3,C[C@@H](O)CNC(=O)C1CC(Cc2c(-c3ccc(F)cc3)[nH]c3c(F)cc(F)cc23)C1 (stereo partly specified),> 1000 nM
4,O=C(NCCO)C1CC(Cc2c(-c3ccc(F)cc3)[nH]c3c(F)cc(F)cc23)C1 (stereo unspecified),0.25 nM
5,N#CC(CO)NC(=O)C1CC(Cc2c(-c3ccc(F)cc3)[nH]c3c(F)cc(F)cc23)C1 (stereo unspecified),> 1000 nM
6,C[C@H](O)[C@H](CO)NC(=O)[C@H]1C[C@@H](c2c(-c3ccc(F)cc3)[nH]c3c(F)cc(F)cc32)C1,> 1000 nM
7,O=C(NCCO)[C@H]1C[C@@H](c2c(-c3ccc(F)cc3)[nH]c3c(F)cc(F)cc32)C1,0.25 nM
8,O=C(NC1(CO)CC1)C1(F)CC(c2c(-c3ccc(F)cc3)[nH]c3c(F)cc(F)cc23)C1 (stereo unspecified),< 250 nM
9,C[C@@H](O)CNC(=O)N[C@H]1C[C@H](c2c(-c3ccc(F)cc3)[nH]c3c(F)cc(F)cc32)C1,> 1000 nM
10,CC1(NC(=O)C2CC(Cc3c(-c4ccc(F)cc4)[nH]c4c(F)cc(F)cc34)C2)CCNC1=O (stereo unspecified),> 1000 nM
11,O=C(NCC1CC(F)(F)C1)[C@H]1C[C@@H](c2c(-c3ccc(F)cc3)[nH]c3c(F)cc(F)cc32)C1,> 1000 nM
12,O=C(NC(CO)CO)N[C@H]1C[C@H](c2c(-c3ccc(F)cc3)[nH]c3c(F)cc(F)cc32)C1,> 1000 nM
13,O=C1CN(C(=O)[C@H]2C[C@@H](c3c(-c4ccc(F)cc4)[nH]c4c(F)cc(F)cc43)C2)CCN1,> 1000 nM
14,O=C(NC1(CO)CC1)[C@H]1C[C@@H](c2c(-c3ccc(F)cc3)[nH]c3c(F)cc(F)cc32)C1,> 1000 nM
15,C[C@H](O)CNC(=O)C1CC(Cc2c(-c3ccc(F)cc3)[nH]c3c(F)cc(F)cc23)C1 (stereo partly specified),> 1000 nM
16,CC1(C(=O)NCCO)CC(c2c(-c3ccc(F)cc3)[nH]c3c(F)cc(F)cc23)C1 (stereo unspecified),0.25 nM
17,CC(O)[C@H](CO)NC(=O)[C@H]1C[C@@H](c2c(-c3ccc(F)cc3)[nH]c3c(F)cc(F)cc32)C1 (stereo partly specified),> 1000 nM
18,C[C@@H](CO)NC(=O)[C@H]1C[C@@H](c2c(-c3ccc(F)cc3)[nH]c3c(F)cc(F)cc32)C1,0.25 nM
19,O=C1NCCCC1NC(=O)[C@H]1C[C@@H](c2c(-c3ccc(F)cc3)[nH]c3c(F)cc(F)cc32)C1 (stereo partly specified),> 1000 nM
20,O=C(N[C@@H](CO)C(F)(F)F)C1CC(Cc2c(-c3ccc(F)cc3)[nH]c3c(F)cc(F)cc23)C1 (stereo partly specified),> 1000 nM
21,O=C1NC[C@@H](O)[C@@H]1NC(=O)[C@H]1C[C@@H](c2c(-c3ccc(F)cc3)[nH]c3c(F)cc(F)cc32)C1,> 1000 nM

row,SMILES,IC50
1,Cn1nccc1CNC(=O)[C@H]1C[C@@H](c2c(-c3ccc(F)cc3)[nH]c3c(F)cc(F)cc32)C1,> 1000 nM
2,O=C1NCC[C@H]1NC(=O)[C@H]1C[C@@H](c2c(-c3ccc(F)cc3)[nH]c3c(F)cc(F)cc32)C1,> 1000 nM
3,CC[C@@H](CO)NC(=O)[C@H]1C[C@@H](c2c(-c3ccc(F)cc3)[nH]c3c(F)cc(F)cc32)C1,> 1000 nM
4,O=C(NC(CO)(CO)CO)[C@H]1C[C@H](c2c(-c3ccc(F)cc3)[nH]c3c(F)cc(F)cc32)C1,< 250 nM
5,O=C(N[C@H]1CCOC1)[C@H]1C[C@@H](c2c(-c3ccc(F)cc3)[nH]c3c(F)cc(F)cc32)C1,> 1000 nM
6,CNC(=O)CN[C@H]1C[C@H](c2c(-c3ccc(F)cc3)[nH]c3c(F)cc(F)cc32)C1,0.25 nM
7,O=C(CNC(=O)[C@H]1C[C@H](c2c(-c3ccc(F)cc3)[nH]c3c(F)cc(F)cc32)C1)NC[C@@H](O)C(F)(F)F,> 1000 nM
8,CC(C)NC(=O)CN[C@H]1C[C@H](c2c(-c3ccc(F)cc3)[nH]c3c(F)cc(F)cc32)C1,> 1000 nM
9,O=C([C@H]1C[C@@H](c2c(-c3ccc(F)cc3)[nH]c3c(F)cc(F)cc32)C1)N1C[C@@H](O)[C@H](O)C1,> 1000 nM
10,O=C(NC(CO)(CO)CO)[C@H]1C[C@@H](c2c(-c3ccc(F)cc3)[nH]c3c(F)cc(F)cc32)C1,0.25 nM
11,O=C(NC1CC(O)C1)[C@H]1C[C@@H](c2c(-c3ccc(F)cc3)[nH]c3c(F)cc(F)cc32)C1 (stereo partly specified),> 1000 nM
12,O=C(NC1CCNC1=O)N[C@H]1C[C@H](c2c(-c3ccc(F)cc3)[nH]c3c(F)cc(F)cc32)C1 (stereo partly specified),> 1000 nM
13,Cn1nccc1NC(=O)[C@H]1C[C@@H](c2c(-c3ccc(F)cc3)[nH]c3c(F)cc(F)cc32)C1,> 1000 nM
14,O=C(NC1(CO)CCC1)[C@H]1C[C@@H](c2c(-c3ccc(F)cc3)[nH]c3c(F)cc(F)cc32)C1,0.25 nM
15,O=C(N[C@@H](CO)C(F)F)[C@H]1C[C@H](c2c(-c3ccc(F)cc3)[nH]c3c(F)cc(F)cc32)C1,< 250 nM
16,O=C(NC1(CCO)CC1)C1CC(Cc2c(-c3ccc(F)cc3)[nH]c3c(F)cc(F)cc23)C1 (stereo unspecified),> 1000 nM
17,O=C1CCC(NC(=O)[C@H]2C[C@@H](c3c(-c4ccc(F)cc4)[nH]c4c(F)cc(F)cc43)C2)C(=O)N1 (stereo partly specified),> 1000 nM
18,NC(=O)CNC1CC(c2c(-c3ccc(F)cc3)[nH]c3c(F)cc(F)cc23)C1 (stereo unspecified),> 1000 nM
19,CC(C)C(CO)NC(=O)[C@H]1C[C@@H](c2c(-c3ccc(F)cc3)[nH]c3c(F)cc(F)cc32)C1 (stereo partly specified),> 1000 nM
20,O=C(NCCO)C1CC(c2c(-c3ccc(F)cc3)[nH]c3c(F)cc(C(F)(F)F)cc23)C1 (stereo unspecified),0.25 nM
21,Cn1cnc(CNC(=O)C2(F)CC(c3c(-c4ccc(F)cc4)[nH]c4c(F)cc(F)cc34)C2)c1 (stereo unspecified),< 250 nM

row,SMILES,IC50
1,CC(CO)(CO)NC(=O)[C@H]1C[C@@H](c2c(-c3ccc(F)cc3)[nH]c3c(F)cc(F)cc32)C1,0.25 nM
2,O=C(Nc1c[nH][nH]c1=O)C1CC(Cc2c(-c3ccc(F)cc3)[nH]c3c(F)cc(F)cc23)C1 (stereo unspecified),> 1000 nM
3,NC(=O)CN[C@H]1C[C@H](c2c(-c3ccc(F)cc3)[nH]c3c(F)cc(F)cc32)C1,> 1000 nM
4,COCCNC(=O)[C@H]1C[C@@H](c2c(-c3ccc(F)cc3)[nH]c3c(F)cc(F)cc32)C1,> 1000 nM
5,O=C(CN[C@H]1C[C@H](c2c(-c3ccc(F)cc3)[nH]c3c(F)cc(F)cc32)C1)NC1CC1,> 1000 nM
6,Cn1cnc(CNC(=O)[C@H]2C[C@@H](c3c(-c4ccc(F)cc4)[nH]c4c(F)cc(F)cc43)C2)c1,> 1000 nM
7,O=C(NCC(F)F)[C@H]1C[C@@H](c2c(-c3ccc(F)cc3)[nH]c3c(F)cc(F)cc32)C1,0.25 nM
8,O=C(NCCn1cccc1)[C@H]1C[C@@H](c2c(-c3ccc(F)cc3)[nH]c3c(F)cc(F)cc32)C1,> 1000 nM
9,CC(C)CC(NC(=O)[C@H]1C[C@@H](c2c(-c3ccc(F)cc3)[nH]c3c(F)cc(F)cc32)C1)C(N)=O (stereo partly specified),> 1000 nM
10,NC(=O)CNC(=O)[C@H]1C[C@@H](c2c(-c3ccc(F)cc3)[nH]c3c(F)cc(F)cc32)C1,> 1000 nM
11,CC(C)(CO)NC(=O)[C@H]1C[C@@H](c2c(-c3ccc(F)cc3)[nH]c3c(F)cc(F)cc32)C1,0.25 nM
12,O=C(NCC(O)C(F)F)C1CC(Cc2c(-c3ccc(F)cc3)[nH]c3c(F)cc(F)cc23)C1 (stereo unspecified),> 1000 nM
13,O=C(NCC1COC1)[C@H]1C[C@@H](c2c(-c3ccc(F)cc3)[nH]c3c(F)cc(F)cc32)C1,> 1000 nM
14,CON(C)C(=O)CN[C@H]1C[C@H](c2c(-c3ccc(F)cc3)[nH]c3c(F)cc(F)cc32)C1,> 1000 nM
15,O=C(N[C@@H](CO)C(F)F)[C@H]1C[C@@H](c2c(-c3ccc(F)cc3)[nH]c3c(F)cc(F)cc32)C1,0.25 nM
16,O=C(CNC(=O)[C@H]1C[C@H](c2c(-c3ccc(F)cc3)[nH]c3c(F)cc(F)cc32)C1)NC[C@H](O)C(F)(F)F,> 1000 nM
17,CC1(C(=O)N[C@H]2CCNC2=O)CC(c2c(-c3ccc(F)cc3)[nH]c3c(F)cc(F)cc23)C1 (stereo partly specified),0.25 nM
18,CC(C)C[C@H](CO)NC(=O)C1CC(Cc2c(-c3ccc(F)cc3)[nH]c3c(F)cc(F)cc23)C1 (stereo partly specified),> 1000 nM
